Data published in US7033509B2 (priority 2000, dated 2006).
Where “and” joins values, the source holds several entries; their conditions need not be identical. Identical values can stand only once. Like-named read-outs stand apart in the source and are kept apart here.

Tests used:
[1] = tested on: bacteria on the surface of peach; type: cell-based
[2] = tested on: fungi on the surface of peach; type: cell-based
[3] = tested on: bacteria on the surface of potato; type: cell-based
[4] = tested on: fungi on the surface of potato; type: cell-based
[5] = tested on: bacteria on the surface of lettuce; type: cell-based
[6] = tested on: fungi on the surface of lettuce; type: cell-based
[7] = tested on: bacteria on the surface of apple; type: cell-based
[8] = tested on: fungi on the surface of apple; type: cell-based
[9] = tested on: bacteria on the surface of strawberry; type: cell-based
[10] = tested on: fungi on the surface of strawberry; type: cell-based
[11] = tested on: bacteria on the surface of avocado; type: cell-based
[12] = tested on: fungi on the surface of avocado; type: cell-based
[13] = tested on: bacteria on the surface of rockmelon; type: cell-based
[14] = tested on: fungi on the surface of rockmelon; type: cell-based
[15] = tested on: bacteria on the surface of orange; test: Orange (L) laboratory dipping, bacteria; type: cell-based; conditions: concentrations of 3, 10 & 30 ppm iodine used
[16] = tested on: fungi on the surface of orange; test: Orange (L) laboratory dipping, fungi; type: cell-based; conditions: concentrations of 3, 10 & 30 ppm iodine used
[17] = tested on: bacteria on the surface of nectarine; test: Nectarine (L) laboratory dipping, bacteria; type: cell-based; conditions: concentrations of 3, 10 & 30 ppm iodine used
[18] = tested on: fungi on the surface of nectarine; test: Nectarine (L) laboratory dipping, fungi; type: cell-based; conditions: concentrations of 3, 10 & 30 ppm iodine used
[19] = tested on: bacteria on the surface of potato; test: Potato (L) laboratory dipping, bacteria; type: cell-based; conditions: concentrations of 3, 10 & 30 ppm iodine used
[20] = tested on: fungi on the surface of potato; test: Potato (L) laboratory dipping, fungi; type: cell-based; conditions: concentrations of 3, 10 & 30 ppm iodine used
[21] = tested on: bacteria on the surface of tomato; test: Tomato (L) laboratory dipping, bacteria; type: cell-based; conditions: 10, 20, 30 ppm iodine
[22] = tested on: fungi on the surface of tomato; test: Tomato (L) laboratory dipping, fungi; type: cell-based; conditions: 10, 20, 30 ppm iodine
[23] = tested on: bacteria on the surface of lettuce; test: Lettuce (L) laboratory dipping, bacteria; type: cell-based; conditions: 10, 20, 30 ppm iodine
[24] = tested on: fungi on the surface of lettuce; test: Lettuce (L) laboratory dipping, fungi; type: cell-based; conditions: 10, 20, 30 ppm iodine
[25] = tested on: bacteria on bean sprouts; test: Bean sprouts (ISU), bacteria; type: cell-based; conditions: 10, 20, 30 ppm iodine
[26] = tested on: fungi on bean sprouts; test: Bean sprouts (ISU), fungi; type: cell-based; conditions: 10, 20, 30 ppm iodine
[27] = tested on: bacteria and fungi found on fresh fruit and vegetables; test: Summary of efficacy results: comparison bacteria/fungi and iodine/chlorine; type: cell-based
[28] = tested on: naturally occurring surface organisms on fruits and vegetables; test: Dipping time effect on efficacy (potatoes, oranges); type: cell-based, bacteria and fungi; conditions: iodine dips, one to four minutes
[29] = tested on: Escherichia coli; conditions: compared with chlorine, especially at the higher temperature and pH values; cited from earlier work

II
Bacteria—dose for ~1.5 log10 reduction [1]: 10 ppm
Fungi—dose for ~1.5 log10 reduction [2]: 30 ppm
Bacterial population per cm^2 Actual count [3]: 370 per cm^2 and 260 per cm^2 and 249 per cm^2
Bacterial population per cm^2 Log10 count [3]: 2.54 log10 units and 2.34 log10 units and 2.38 log10 units
Bacterial population per cm^2 Log10 reduction [3]: 0.39 ab log10 units and 0.58 b log10 units and 0.54 b log10 units
Bacteria—dose for ~1.5 log10 reduction [3]: >30 ppm
Fungal population per cm^2 Actual count [4]: 2 per cm^2 and 3 per cm^2
Fungi—dose for ~1.5 log10 reduction [4]: 10 ppm
Bacteria—dose for ~1.5 log10 reduction [5]: 20 ppm
Fungal population per cm^2 Log10 count [6]: −0.12 log10 units and −0.35 log10 units
Fungi—dose for ~1.5 log10 reduction [6]: 10 ppm
Bacteria—dose for ~1.5 log10 reduction [7]: 10 ppm
Fungi—dose for ~1.5 log10 reduction [8]: 10 ppm
Bacteria—dose for ~1.5 log10 reduction [9]: >30 ppm
Fungi—dose for ~1.5 log10 reduction [10]: 30 ppm
Bacteria—dose for ~1.5 log10 reduction [11]: 10 ppm
Fungi—dose for ~1.5 log10 reduction [12]: 20 ppm
Bacterial population per cm^2 Actual count [13]: 19,514 per cm^2 and 14,456 per cm^2 and 10,028 per cm^2
Bacterial population per cm^2 Log10 count [13]: 4.26 log10 units and 4.15 log10 units and 3.98 log10 units
Bacterial population per cm^2 Log10 reduction [13]: 0.83 b log10 units and 0.93 bc log10 units and 1.10 cd log10 units
Bacteria—dose for ~1.5 log10 reduction [13]: >30 ppm
Fungi—dose for ~1.5 log10 reduction [14]: 20 ppm
Bacteria—dose for ~1.5 log10 reduction [15]: 30 ppm
Fungi—dose for ~1.5 log10 reduction [16]: 30 ppm
Bacteria—dose for ~1.5 log10 reduction [17]: 3.3 ppm
Fungi—dose for ~1.5 log10 reduction [18]: 10 ppm
Bacteria—dose for ~1.5 log10 reduction [19]: >30 ppm
Fungi—dose for ~1.5 log10 reduction [20]: >30 ppm
Bacteria—dose for ~1.5 log10 reduction [21]: 20 ppm
Fungi—dose for ~1.5 log10 reduction [22]: 20 ppm
Bacteria—dose for ~1.5 log10 reduction [23]: 30 ppm
Fungi—dose for ~1.5 log10 reduction [24]: >30 ppm
Bacteria—dose for ~1.5 log10 reduction [25]: 30 ppm
Fungi—dose for ~1.5 log10 reduction [26]: 30 ppm
Better Control of Bacteria/Fungi ([27]; Apples (ISU)): Fungi
Better control by iodine/chlorine ([27]; Apples (ISU)): Iodine
Better Control of Bacteria/Fungi ([27]; Avocado (ISU)): Bacteria
Better control by iodine/chlorine ([27]; Avocado (ISU)): Iodine
Better control by iodine/chlorine ([27]; Bean sprouts (ISU)): Iodine
Better Control of Bacteria/Fungi ([27]; Lettuce (ISU)): Fungi
Better control by iodine/chlorine ([27]; Lettuce (ISU)): Iodine
Better Control of Bacteria/Fungi ([27]; Lettuce (L)): Bacteria
Better control by iodine/chlorine ([27]; Lettuce (L)): Chlorine
Better Control of Bacteria/Fungi ([27]; Nectarine (L)): Bacteria
Better control by iodine/chlorine ([27]; Nectarine (L)): Iodine
Better Control of Bacteria/Fungi ([27]; Orange (L)): Bacteria
Better control by iodine/chlorine ([27]; Orange (L)): Chlorine
Better Control of Bacteria/Fungi ([27]; Peach (L)): Bacteria
Better control by iodine/chlorine ([27]; Peach (L)): Iodine
Better Control of Bacteria/Fungi ([27]; Potato (ISU)): Fungi
Better control by iodine/chlorine ([27]; Potato (ISU)): Iodine
Better Control of Bacteria/Fungi ([27]; Potato (L)): Fungi
Better control by iodine/chlorine ([27]; Potato (L)): Iodine
Better Control of Bacteria/Fungi ([27]; Rockmelon (ISU)): Fungi
Better control by iodine/chlorine ([27]; Rockmelon (ISU)): Same effectiveness
Better Control of Bacteria/Fungi ([27]; Strawberry (ISU)): Fungi
Better control by iodine/chlorine ([27]; Strawberry (ISU)): Iodine
Better Control of Bacteria/Fungi ([27]; Tomato (L)): Fungi
Better control by iodine/chlorine ([27]; Tomato (L)): Iodine
effectiveness compared with an equivalent concentration of chlorine ([27]; over the range of products and concentrations used): considerably more effective
effect of dip time on effectiveness [28]: equivalent in effectiveness to doubling the dip concentration
efficiency for the control of Escherichia coli in dirty water [29]: greater than that of chlorine
